The target in assay [1] is PI3Kα (Homo sapiens, UniProt P42336, H1047R). Briefly: ADP-Glo IC50 assay. The assay is classed as biochemical. The settings on record: class symbols; key not given. (ADP-Glo turns the ADP formed in a reaction into a luminescent signal.)
Assay [2] deals with MCF10A. Put plainly: MCF10A IC50 assay. The format is cell-based. The conditions noted are these: Homo sapiens, MCF-10A; class symbols; key not given. Summed up: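 MCF10A cells overexpressing hotspot PIK3CA mutations were seeded at 5,000 per well in supplemented DMEM/F12 and adhered overnight (37 °C, 5% CO₂). Compounds were added acoustically as 12-dose 1:3 series, in duplicate, for 2 hours. Cells were lysed 60 min, then incubated 4 hours at room temperature with CisBio phospho-AKT (Ser473) HTRF antibodies and read on an Envision 2105. IC₅₀ for AKT phosphorylation came from Genedata software and was reported as binned categories.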

Bounds are passed on as bounds.

Sequence of PI3Kα (P42336 whole entry H1047R): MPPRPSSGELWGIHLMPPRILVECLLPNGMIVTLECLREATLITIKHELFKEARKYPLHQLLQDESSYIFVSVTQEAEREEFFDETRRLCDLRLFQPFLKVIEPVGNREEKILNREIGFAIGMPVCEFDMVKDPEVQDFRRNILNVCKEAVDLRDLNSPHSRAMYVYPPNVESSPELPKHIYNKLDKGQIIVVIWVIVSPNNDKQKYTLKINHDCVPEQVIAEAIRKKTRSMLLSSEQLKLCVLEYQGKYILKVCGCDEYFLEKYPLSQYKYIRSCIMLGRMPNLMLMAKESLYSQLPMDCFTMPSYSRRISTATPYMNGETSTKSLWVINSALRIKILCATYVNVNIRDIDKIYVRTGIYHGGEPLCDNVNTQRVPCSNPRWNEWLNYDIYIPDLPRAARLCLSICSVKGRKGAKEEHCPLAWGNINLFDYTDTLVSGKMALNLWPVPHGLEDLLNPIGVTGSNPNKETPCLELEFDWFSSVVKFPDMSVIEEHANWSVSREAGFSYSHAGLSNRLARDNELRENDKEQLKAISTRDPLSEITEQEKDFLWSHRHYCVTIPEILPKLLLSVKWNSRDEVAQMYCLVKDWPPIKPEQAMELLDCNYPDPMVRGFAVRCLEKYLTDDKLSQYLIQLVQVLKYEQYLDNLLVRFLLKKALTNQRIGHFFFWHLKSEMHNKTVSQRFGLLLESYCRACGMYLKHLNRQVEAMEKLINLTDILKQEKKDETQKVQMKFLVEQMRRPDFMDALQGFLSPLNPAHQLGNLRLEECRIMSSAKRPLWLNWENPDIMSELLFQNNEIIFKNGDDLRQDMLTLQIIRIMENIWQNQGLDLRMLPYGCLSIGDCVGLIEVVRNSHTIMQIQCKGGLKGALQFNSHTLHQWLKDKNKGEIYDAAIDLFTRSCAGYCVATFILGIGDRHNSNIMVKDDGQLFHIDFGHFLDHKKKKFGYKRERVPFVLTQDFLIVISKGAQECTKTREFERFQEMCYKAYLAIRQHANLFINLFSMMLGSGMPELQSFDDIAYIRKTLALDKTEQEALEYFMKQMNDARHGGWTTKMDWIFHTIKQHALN
Sequence of PI3Kα (P27986 whole entry partner): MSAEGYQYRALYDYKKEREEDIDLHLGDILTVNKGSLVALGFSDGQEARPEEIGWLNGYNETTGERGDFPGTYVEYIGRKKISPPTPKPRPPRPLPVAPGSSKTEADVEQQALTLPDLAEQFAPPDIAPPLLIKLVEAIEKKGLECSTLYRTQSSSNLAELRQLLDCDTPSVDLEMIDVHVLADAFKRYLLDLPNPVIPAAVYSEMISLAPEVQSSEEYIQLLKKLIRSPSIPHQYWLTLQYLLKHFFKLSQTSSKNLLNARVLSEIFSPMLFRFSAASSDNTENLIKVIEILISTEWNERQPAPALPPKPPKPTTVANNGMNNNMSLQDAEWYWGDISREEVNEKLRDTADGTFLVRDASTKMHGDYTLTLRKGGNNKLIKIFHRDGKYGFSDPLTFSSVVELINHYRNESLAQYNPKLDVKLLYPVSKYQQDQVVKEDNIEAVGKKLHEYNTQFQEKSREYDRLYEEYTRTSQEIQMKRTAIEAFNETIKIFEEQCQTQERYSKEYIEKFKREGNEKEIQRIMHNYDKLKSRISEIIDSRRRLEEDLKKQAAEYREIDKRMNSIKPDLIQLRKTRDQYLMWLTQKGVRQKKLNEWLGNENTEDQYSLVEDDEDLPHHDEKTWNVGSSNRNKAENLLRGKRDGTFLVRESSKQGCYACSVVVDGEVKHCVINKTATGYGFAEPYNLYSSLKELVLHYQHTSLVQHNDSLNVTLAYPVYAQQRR

Take `Cc1ccccc1Nc1ncc(C(=O)NCCCCCCCCCNc2ccc3c(c2)C(=O)N(C2CCC(=O)NC2=O)C3=O)cc1NC(=O)c1csc2ccccc12` (centres unmarked) [Example I-12]: the IC50 fell in the range of 0.1 to 0.5 µM in assay [1] and 10 to 36 µM in assay [2].

On to `Cc1ccccc1Nc1ncc(C(=O)NCCOCCOCCOCCOCCC(=O)N[C@H](C(=O)N2C[C@H](O)C[C@H]2C(=O)N[C@@H](C)c2ccc(-c3scnc3C)cc2)C(C)(C)C)cc1NC(=O)c1csc2ccccc12` [Example I-13], for which the IC50 was 1 to 10 µM in assay [1] and 10 to 36 µM in assay [2].

`Cc1ccccc1Nc1ncc(C(=O)NCCCCCNc2ccc3c(c2)C(=O)N(C2CCC(=O)NC2=O)C3=O)cc1NC(=O)c1csc2ccccc12` (centres unmarked) [Example I-17]: the IC50 in assay [1] is less than 0.1 µM; in assay [2], 5 to 10 µM.

As to `Cc1ccccc1Nc1ncc(C(=O)NCCCCCNc2cccc3c2C(=O)N(C2CCC(=O)NC2=O)C3=O)cc1NC(=O)c1csc2ccccc12` (centres unmarked) [Example I-22], the IC50 in assay [1] lay in the range of 0.1 to 0.5 µM; in assay [2] it was 10 to 36 µM.

Consider `Cc1ccccc1Nc1ncc(C(=O)NCCCCCCCCCC(N)=O)cc1NC(=O)c1csc2ccccc12` [Example I-24], for which the IC50 in assay [1] was less than 0.1 µM; in assay [2], 1 to 5 µM.

As for `Cc1ccccc1Nc1ncc(C(=O)NCCCCCCCCCC(=O)O)cc1NC(=O)c1csc2ccccc12` [Example I-25], the IC50 in assay [1] is less than 0.1 µM; in assay [2] it was 1 to 5 µM.

Consider `CCCCCCCCCCCCNC(=O)c1cnc(Nc2ccccc2C)c(NC(=O)c2csc3ccccc23)c1` [Example I-28], for which the IC50 was 1 to 10 µM in assay [1] and 10 to 36 µM in assay [2].

On to `Cc1ccccc1Nc1ncc(C(=O)NCCCCCCCCCNc2cccc3c2C(=O)N(C2CCC(=O)NC2=O)C3=O)cc1NC(=O)c1csc2ccccc12` (centres unmarked) [Example I-31], for which the IC50 in assay [1] is 0.1 to 0.5 µM; in assay [2] it was 10 to 36 µM.

`Cc1ccccc1Nc1ncc(C(=O)NCCCCCCCNc2ccc3c(c2)C(=O)N(C2CCC(=O)NC2=O)C3=O)cc1NC(=O)c1csc2ccccc12` (centres unmarked) [Example I-39]: the IC50 in assay [1] was in the range of 0.1 to 0.5 µM; in assay [2], 10 to 36 µM.

`Cc1ccccc1Nc1ncc(C(=O)NCC#Cc2ccc3c(c2)CN(C2CCC(=O)NC2=O)C3=O)cc1NC(=O)c1csc2ccccc12` (centres unmarked) [Example I-53]: the IC50 in assay [1] was less than 0.1 µM; in assay [2], less than 1 µM.

Consider `Cc1ccccc1Nc1ncc(C(=O)NCCCCNc2ccc3c(c2)C(=O)N(C2CCC(=O)NC2=O)C3=O)cc1NC(=O)c1csc2ccccc12` (centres unmarked) [Example I-54], for which the IC50 is less than 0.1 µM in assay [1] and 10 to 36 µM in assay [2].

Turning to `O=C1CCC(N2Cc3cc(C(=O)NCCCCCCCCCNC(=O)c4cc(NC(=O)c5cc(F)cc(C(F)(F)F)c5)c5c(c4)C(=O)N[C@H]5c4cc(F)ccc4Cl)ccc3C2=O)C(=O)N1` (some centres unmarked) [Example I-67], the IC50 in assay [1] is less than 0.1 µM; in assay [2], 10 to 36 µM.

As to `O=C(O)CCCCCCCCCNC(=O)c1cnc(Nc2cc(F)ccc2Cl)c(NC(=O)c2csc3ccccc23)c1` [Example I-72], the IC50 in assay [1] is less than 0.1 µM; in assay [2] it was 10 to 36 µM.

`Cc1cc(Br)c2oc(N3CCN(C(=O)CCCCCCCCNC(=O)c4cnc(Nc5ccccc5C)c(NC(=O)c5csc6ccccc56)c4)CC3)cc(=O)c2c1` [Example I-78]: the IC50 lay within 0.1 to 0.5 µM in assay [1] and 10 to 36 µM in assay [2].

As for `Cc1cc(Br)c2oc(N3CCN(C(=O)CCCCCCCCCNC(=O)c4cnc(Nc5ccccc5C)c(NC(=O)c5csc6ccccc56)c4)CC3)cc(=O)c2c1` [Example I-82], the IC50 was 0.1 to 0.5 µM in assay [1] and 10 to 36 µM in assay [2].

With `Cc1cc(Br)c2oc(N3CCN(C(=O)CCCCCCCNC(=O)c4cnc(Nc5ccccc5C)c(NC(=O)c5csc6ccccc56)c4)CC3)cc(=O)c2c1` [Example I-87], the IC50 in assay [1] is 0.1 to 0.5 µM; in assay [2] it was less than 1 µM.

In general, IC50 refers to the concentration at which inhibition is half-maximal.

The record behind these values is patent publication US20260131009A1, “BIFUNCTIONAL PI3K-ALPHA INHIBITORS AND USES THEREOF” (Relay Therapeutics, Inc., priority 2021, published 2026).
